In patent US11407740B2 (priority 2018, dated 2022):
Converted amounts (≈) assume the structure as drawn.

Test system: E. coli
Test: Bacterial susceptibility testing, MIC by broth microdilution (CLSI)
Details: for MIC: Escherichia coli, read-out: E. coli MIC, broth microdilution, 35° C., 18-24 h; for E. coli MIC: broth microdilution, 35° C., 18-24 h
Procedure: Minimal inhibitory concentrations (MIC) were determined by the broth microdilution method in accordance with the Clinical and Laboratory Standards Institute (CLSI) guidelines. In brief, organism suspensions were adjusted to a 0.5 McFarland standard to yield a final inoculum between 3×10^3 and 7×10^5 colony-forming units (CFU)/mL. Drug dilutions and inocula were made in sterile, cation adjusted Mueller-Hinton Broth (Beckton Dickinson). An inoculum volume of 100 μL was added to wells containing 100 μL of broth with 2-fold serial dilutions of drug.

SMILES | MIC [µg/mL] | E. coli MIC
O=c1[nH]cnc(CC(CO)c2ccc(C#Cc3ccc(CNC4COC4)cc3)cc2)c1O (stereo not shown) [Compound 49] | < 1 | –
CCOC(=O)C(Cc1nc[nH]c(=O)c1O)c1ccc(C#Cc2ccc(CNC3COC3)cc2)cc1 (stereo not shown) [Compound 50] | 1 to 8 (≈ 2.11 to 16.9 µM) | –
O=c1[nH]cnc(CC(CO)c2ccc(C#Cc3ccc(CN4CC(N5CCOCC5)C4)cc3)cc2)c1O (stereo not shown) [Compound 51] | 1 to 8 (≈ 2 to 16 µM) | –
O=c1[nH]cnc(CC(CO)c2ccc(C#Cc3ccc(CNCC4CCOC4)cc3)cc2)c1O (stereo not shown) [Compound 52] | 1 to 8 (≈ 2.18 to 17.4 µM) | –
O=c1[nH]cnc(CC(CO)c2ccc(C#Cc3ccc(CNC4CCOCC4)cc3)cc2)c1O (stereo not shown) [Compound 53] | 1 to 8 (≈ 2.18 to 17.4 µM) | –
N=S1(=O)CCC(NCc2ccc(C#Cc3ccc(C(CO)Cc4nc[nH]c(=O)c4O)cc3)cc2)C1 (stereo not shown) [Compound 56] | 1 to 8 (≈ 2.03 to 16.2 µM) | –
COCCNCc1ccc(C#Cc2ccc(C(CO)Cc3nc[nH]c(=O)c3O)cc2)cc1 (stereo not shown) [Compound 57] | 1 to 8 (≈ 2.31 to 18.5 µM) | –
O=c1[nH]cnc(CC(CO)c2ccc(C#Cc3ccc(CNCC4CC4)cc3)cc2)c1O (stereo not shown) [Compound 58] | 1 to 8 (≈ 2.33 to 18.6 µM) | –
CN1CCN(C(=O)c2ccc(C#Cc3ccc(C(CO)Cc4nc[nH]c(=O)c4O)cc3)cc2)CC1 (stereo not shown) [Compound 59] | 1 to 8 (≈ 2.12 to 16.9 µM) | –
O=c1[nH]cnc(CC(CO)c2ccc(C#Cc3ccc(CNC4CC[S+]([O-])C4)cc3)cc2)c1O (stereo not shown) [Compound 60] | 1 to 8 (≈ 2.09 to 16.8 µM) | –
CNCc1ccc(C#Cc2ccc(C(CO)Cc3nc[nH]c(=O)c3O)cc2)cc1 (stereo not shown) [Compound 61] | 1 to 8 (≈ 2.57 to 20.5 µM) | –
NCc1ccc(C#Cc2ccc(C(CO)Cc3nc[nH]c(=O)c3O)cc2)cc1 (stereo not shown) [Compound 63] | 1 to 8 (≈ 2.66 to 21.3 µM) | –
NC1(Cc2ccc(C#Cc3ccc(C(CO)Cc4nc[nH]c(=O)c4O)cc3)cc2)CCOCC1 (stereo not shown) [Compound 64] | 1 to 8 (≈ 2.18 to 17.4 µM) | –
NC(Cc1nc[nH]c(=O)c1O)c1ccc(C#Cc2ccc(CN3CCOCC3)cc2)cc1 (stereo not shown) [Compound 65] | < 1 | –
COC1CN(CC(Cc2nc[nH]c(=O)c2O)c2ccc(C#Cc3ccc(CN4CCOCC4)cc3)cc2)C1 (stereo not shown) [Compound 71] | < 1 | –
CC(F)CNCC(Cc1nc[nH]c(=O)c1O)c1ccc(C#Cc2ccc(CN3CCOCC3)cc2)cc1 (stereo not shown) [Compound 74] | < 1 | –
O=c1[nH]cnc(CC(CN[C@H]2C[C@@H](F)C2)c2ccc(C#Cc3ccc(CN4CCOCC4)cc3)cc2)c1O (stereo partly shown) [Compound 75] | < 1 | –
O=c1[nH]cnc(CC(CN[C@H]2C[C@@H](F)C2)c2ccc(C#Cc3ccc(CN4CCOCC4)cc3)cc2)c1O (stereo partly shown) [Compound 76] | – | A (A: ≤1 μg/mL)
O=c1[nH]cnc(CC(CN[C@H]2C[C@@H](F)C2)c2ccc(C#Cc3ccc(CN4CCOCC4)cc3)cc2)c1O (stereo partly shown) [Compound 77] | – | B (B: >1 μg/mL to ≤8.0 μg/mL)
O=c1[nH]cnc(CC(CN[C@H]2C[C@H](F)C2)c2ccc(C#Cc3ccc(CN4CCOCC4)cc3)cc2)c1O (stereo partly shown) [Compound 78] | 1 to 8 (≈ 1.94 to 15.5 µM) | –
O=c1[nH]cnc(CC(CN[C@H]2C[C@H](F)C2)c2ccc(C#Cc3ccc(CN4CCOCC4)cc3)cc2)c1O (stereo partly shown) [Compound 79] | – | A (A: ≤1 μg/mL)
O=c1[nH]cnc(CC(CN[C@H]2C[C@H](F)C2)c2ccc(C#Cc3ccc(CN4CCOCC4)cc3)cc2)c1O (stereo partly shown) [Compound 80] | – | A (A: ≤1 μg/mL)

SMILES | MIC [µg/mL] | E. coli MIC
C[C@@H](CF)NCC(Cc1nc[nH]c(=O)c1O)c1ccc(C#Cc2ccc(CN3CC(C#N)C3)cc2)cc1 (stereo partly shown) [Compound 81] | < 1 | –
C[C@H](CF)NCC(Cc1nc[nH]c(=O)c1O)c1ccc(C#Cc2ccc(CN3CC(C#N)C3)cc2)cc1 (stereo partly shown) [Compound 83] | < 1 | –
CC(CC#N)NCC(Cc1nc[nH]c(=O)c1O)c1ccc(C#Cc2ccc(CN3CCOCC3)cc2)cc1 (stereo not shown) [Compound 97] | < 1 | –
COC1CN(Cc2ccc(C#Cc3ccc(C(CNCC(C)F)Cc4nc[nH]c(=O)c4O)cc3)cc2)C1 (stereo not shown) [Compound 101] | < 1 | –
N#CC1CN(CC(Cc2nc[nH]c(=O)c2O)c2ccc(C#Cc3ccc(CN4CCOCC4)cc3)cc2)C1 (stereo not shown) [Compound 102] | < 1 | –
O=c1[nH]cnc(CC(CNCCCF)c2ccc(C#Cc3ccc(CN4CCOCC4)cc3)cc2)c1O (stereo not shown) [Compound 105] | < 1 | –
O=c1[nH]cnc(CC(CNCCCF)c2ccc(C#Cc3ccc(CN4CCOCC4)cc3)cc2)c1O (stereo not shown) [Compound 106] | – | B (B: >1 μg/mL to ≤8.0 μg/mL)
O=c1[nH]cnc(CC(CNCCCF)c2ccc(C#Cc3ccc(CN4CCOCC4)cc3)cc2)c1O (stereo not shown) [Compound 107] | – | A (A: ≤1 μg/mL)
O=c1[nH]cnc(CC(CNC2CC(F)(F)C2)c2ccc(C#Cc3ccc(CN4CCOCC4)cc3)cc2)c1O (stereo not shown) [Compound 112] | < 1 | –
O=c1[nH]cnc(CC(CNC2CC(F)(F)C2)c2ccc(C#Cc3ccc(CN4CCOCC4)cc3)cc2)c1O (stereo not shown) [Compound 113] | – | B (B: >1 μg/mL to ≤8.0 μg/mL)
O=c1[nH]cnc(CC(CNC2CC(F)(F)C2)c2ccc(C#Cc3ccc(CN4CCOCC4)cc3)cc2)c1O (stereo not shown) [Compound 114] | – | B (B: >1 μg/mL to ≤8.0 μg/mL)
O=c1[nH]cnc(CC(CNCC(F)F)c2ccc(C#Cc3ccc(CN4CCOCC4)cc3)cc2)c1O (stereo not shown) [Compound 115] | < 1 | –
O=c1[nH]cnc(CC(CNC2CC2)c2ccc(C#Cc3ccc(CN4CCOCC4)cc3)cc2)c1O (stereo not shown) [Compound 118] | < 1 | –
O=c1[nH]cnc(CC(CNC2CC2)c2ccc(C#Cc3ccc(CN4CCOCC4)cc3)cc2)c1O (stereo not shown) [Compound 119] | – | A (A: ≤1 μg/mL)
O=c1[nH]cnc(CC(CNC2CC2)c2ccc(C#Cc3ccc(CN4CCOCC4)cc3)cc2)c1O (stereo not shown) [Compound 120] | – | B (B: >1 μg/mL to ≤8.0 μg/mL)
COC1CN(Cc2ccc(C#Cc3ccc(C(Cc4nc[nH]c(=O)c4O)CN4C(=O)OC[C@@H]4C)cc3)cc2)C1 (stereo partly shown) [Compound 121] | 1 to 8 (≈ 1.89 to 15.1 µM) | –
COC1CN(Cc2ccc(C#Cc3ccc(C(Cc4nc[nH]c(=O)c4O)CN4C(=O)OC[C@@H]4C)cc3)cc2)C1 (stereo partly shown) [Compound 122] | – | A (A: ≤1 μg/mL)
CS(=O)(=O)CCNCC(Cc1nc[nH]c(=O)c1O)c1ccc(C#Cc2ccc(CN3CCOCC3)cc2)cc1 (stereo not shown) [Compound 128] | 1 to 8 (≈ 1.82 to 14.5 µM) | –
O=c1[nH]cnc(CC(CNCCO)c2ccc(C#Cc3ccc(CN4CCOCC4)cc3)cc2)c1O (stereo not shown) [Compound 129] | 1 to 8 (≈ 2.05 to 16.4 µM) | –
N#CCCNCC(Cc1nc[nH]c(=O)c1O)c1ccc(C#Cc2ccc(CN3CCOCC3)cc2)cc1 (stereo not shown) [Compound 130] | 1 to 8 (≈ 2.01 to 16.1 µM) | –
CC(NCC(F)F)C(Cc1nc[nH]c(=O)c1O)c1ccc(C#Cc2ccc(CN3CCOCC3)cc2)cc1 (stereo not shown) [Compound 131] | 1 to 8 (≈ 1.91 to 15.3 µM) | –
N#CCCNCC(Cc1nc[nH]c(=O)c1O)c1ccc(C#Cc2ccc(CN3CC(CC#N)C3)cc2)cc1 (stereo not shown) [Compound 134] | 8 to 32 (≈ 15.8 to 63.2 µM) | –

SMILES | MIC [µg/mL] | E. coli MIC
CC(F)CNCC(Cc1nc[nH]c(=O)c1O)c1ccc(C#Cc2ccc(CCN3CCOCC3)cc2)cc1 (stereo not shown) [Compound 138] | 1 to 8 (≈ 1.93 to 15.4 µM) | –
O=c1[nH]cnc(CC(NCCCF)c2ccc(C#Cc3ccc(CN4CCOCC4)cc3)cc2)c1O (stereo not shown) [Compound 139] | < 1 | –
CC(CF)NC(Cc1nc[nH]c(=O)c1O)c1ccc(C#Cc2ccc(CN3CCOCC3)cc2)cc1 (stereo not shown) [Compound 141] | < 1 | –
N=S1(=O)CCC(NCc2ccc(C#Cc3ccc(C(CO)Cc4nc[nH]c(=O)c4O)cc3)cc2)CC1 (stereo not shown) [Compound 149] | 1 to 8 (≈ 1.97 to 15.8 µM) | –
O=C(CO)N1CCN(Cc2ccc(C#Cc3ccc(C(CO)Cc4nc[nH]c(=O)c4O)cc3)cc2)CC1 (stereo not shown) [Compound 152] | < 1 | –
O=C(C1CC1)N1CC[C@@H](NCc2ccc(C#Cc3ccc(C(CO)Cc4nc[nH]c(=O)c4O)cc3)cc2)C1 (stereo partly shown) [Compound 153] | < 1 | –
O=C(CO)N1CCC(NCc2ccc(C#Cc3ccc(C(CO)Cc4nc[nH]c(=O)c4O)cc3)cc2)CC1 (stereo not shown) [Compound 157] | 1 to 8 (≈ 1.94 to 15.5 µM) | –
COC1CN(Cc2ccc(C#Cc3ccc(C(Cc4nc[nH]c(=O)c4O)CN4CC(F)C4)cc3)cc2)C1 (stereo not shown) [Compound 159] | – | A (A: ≤1 μg/mL)
COC1CN(Cc2ccc(C#Cc3ccc(C(Cc4nc[nH]c(=O)c4O)CN4CC(F)C4)cc3)cc2)C1 (stereo not shown) [Compound 160] | – | A (A: ≤1 μg/mL)
COCCNCC(Cc1nc[nH]c(=O)c1O)c1ccc(C#Cc2ccc(CN3CCOCC3)cc2)cc1 (stereo not shown) [Compound 164] | 1 to 8 (≈ 1.99 to 15.9 µM) | –
O=c1[nH]cnc(CC(NCCCCl)c2ccc(C#Cc3ccc(CN4CCOCC4)cc3)cc2)c1O (stereo not shown) [Compound 172] | < 1 | –
COC1CCN(Cc2ccc(C#Cc3ccc(C(N)Cc4nc[nH]c(=O)c4O)cc3)cc2)CC1 (stereo not shown) [Compound 174] | < 1 | –
COC1CN(Cc2ccc(C#Cc3ccc(C(Cc4nc[nH]c(=O)c4O)CN4CC(OC)C4)cc3)cc2)C1 (stereo not shown) [Compound 175] | 1 to 8 (≈ 1.94 to 15.5 µM) | –
COC1CN(Cc2ccc(C#Cc3ccc(C(Cc4nc[nH]c(=O)c4O)CN4CC(OC)C4)cc3)cc2)C1 (stereo not shown) [Compound 176] | – | A (A: ≤1 μg/mL)
O=c1[nH]cnc(CC(CN2CCC2)c2ccc(C#Cc3ccc(CN4CCOCC4)cc3)cc2)c1O (stereo not shown) [Compound 177] | < 1 | –
COC1CN(Cc2ccc(C#Cc3ccc(C(Cc4nc[nH]c(=O)c4O)CN4CC(F)C4)cc3)cc2)C1 (stereo not shown) [Compound 180] | – | C (C: >8.0 μg/mL to ≤32 μg/mL)
COC1CN(Cc2ccc(C#Cc3ccc(C(Cc4nc[nH]c(=O)c4O)CN4CC(F)C4)cc3)cc2)C1 (stereo not shown) [Compound 181] | – | B (B: >1 μg/mL to ≤8.0 μg/mL)
O=c1[nH]cnc(CC(CNCc2ccn[nH]2)c2ccc(C#Cc3ccc(CN4CCOCC4)cc3)cc2)c1O (stereo not shown) [Compound 184] | 1 to 8 (≈ 1.91 to 15.2 µM) | –
COCC(Cc1nc[nH]c(=O)c1O)c1ccc(C#Cc2ccc(CN3CCOCC3)cc2)cc1 (stereo not shown) [Compound 190] | < 1 | –
O=C(NCC(F)F)C(Cc1nc[nH]c(=O)c1O)N1Cc2cc(C#Cc3ccc(CN4CCOCC4)cc3)cn2C1=O (stereo not shown) [Compound 191] | < 1 | –
